Data published in ChEMBL document CHEMBL1201862, “PubChem BioAssay data set” (2004).
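Assay format: 96-well plates, 48-hour exposure. Abbreviation: GI50, concentration required for 50% inhibition of growth.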 Calls of active or inactive are those of the source. No stated cut-off is given here; in the data, active = GI50 up to about 1.1 µM and inactive = higher.

What was measured:
Assay in all cases: NCI-60 cell line screen, 48 h
786-0 = tested on: 786-0
A498 = tested on: A498
A549 = tested on: A549
ACHN = tested on: ACHN
BT-549 = tested on: BT-549
CAKI-1 = tested on: CAKI-1
COLO 205 = tested on: COLO 205
DU-145 = tested on: DU-145
EKVX = tested on: EKVX
HCC 2998 = tested on: HCC 2998
HCT-116 = tested on: HCT-116
HCT-15 = tested on: HCT-15
HL-60 = tested on: HL-60
HOP-62 = tested on: HOP-62
HOP-92 = tested on: HOP-92
HT-29 = tested on: HT-29
Hs-578T = tested on: Hs-578T
IGROV-1 = tested on: IGROV-1
KM12 = tested on: KM12
LOX IMVI = tested on: LOX IMVI
M14 = tested on: M14
MCF7 = tested on: MCF7
MDA-MB-231 = tested on: MDA-MB-231
MDA-MB-435 = tested on: MDA-MB-435
MDA-N = tested on: MDA-N
MOLT-4 = tested on: MOLT-4
NCI-H226 = tested on: NCI-H226
NCI-H23 = tested on: NCI-H23
NCI-H460 = tested on: NCI-H460
NCI-H522 = tested on: NCI-H522
NCI/ADR-RES = tested on: NCI/ADR-RES
OVCAR-3 = tested on: OVCAR-3
OVCAR-4 = tested on: OVCAR-4
OVCAR-5 = tested on: OVCAR-5
OVCAR-8 = tested on: OVCAR-8
PC-3 = tested on: PC-3
RPMI-8226 = tested on: RPMI-8226
RXF 393 = tested on: RXF 393
SF-268 = tested on: SF-268
SF-295 = tested on: SF-295
SF-539 = tested on: SF-539
SK-MEL-28 = tested on: SK-MEL-28
SK-MEL-2 = tested on: SK-MEL-2
SK-MEL-5 = tested on: SK-MEL-5
SK-OV-3 = tested on: SK-OV-3
SN12C = tested on: SN12C
SNB-19 = tested on: SNB-19
SNB-75 = tested on: SNB-75
SR = tested on: SR
SW-620 = tested on: SW-620
T47D = tested on: T47D
TK-10 = tested on: TK-10
U-251 = tested on: U-251
UACC-257 = tested on: UACC-257
UACC-62 = tested on: UACC-62
UO-31 = tested on: UO-31
CCRF-CEM = tested on: CCRF-CEM
K562 = tested on: K562
Malme-3M = tested on: Malme-3M

**Q.** `COC(=O)C1C(C(=O)OC)C1(Br)CBr` (centres undefined) was tested. Which GI50 (786-0) did it give?
**A.** Its GI50 is 20.4 µM (inactive).

**Q.** What about the GI50 (A498) of the same molecule?
**A.** Its GI50 is > 100 µM (inactive).

**Q.** And the GI50 (A549)?
**A.** The GI50 was > 100 µM (inactive).

**Q.** And the GI50 (ACHN)?
**A.** Its GI50 is 25.8 µM (inactive).

**Q.** What about the GI50 (BT-549) of the same molecule?
**A.** Its GI50 is 33.1 µM (inactive).

**Q.** What about the GI50 (CAKI-1) of the same molecule?
**A.** The GI50 was 17.8 µM (inactive).

**Q.** What about the GI50 (COLO 205) of the same molecule?
**A.** Its GI50 is 20 µM (inactive).

**Q.** And the GI50 (DU-145)?
**A.** The GI50 was > 100 µM (inactive).

**Q.** And the GI50 (EKVX)?
**A.** The GI50 was 25.1 µM (inactive).

**Q.** What about the GI50 (HCC 2998) of the same molecule?
**A.** The GI50 was > 100 µM (inactive).

**Q.** What about the GI50 (HCT-116) of the same molecule?
**A.** The GI50 was 39.3 µM (inactive).

**Q.** And the GI50 (HCT-15)?
**A.** The GI50 was 17.9 µM.

**Q.** And the GI50 (HL-60)?
**A.** The GI50 was 43.2 µM (inactive).

**Q.** What about the GI50 (HOP-62) of the same molecule?
**A.** The GI50 was > 100 µM (inactive).

**Q.** And the GI50 (HOP-92)?
**A.** Its GI50 is 22.9 µM (inactive).

**Q.** And the GI50 (HT-29)?
**A.** The GI50 was 24 µM (inactive).

**Q.** And the GI50 (Hs-578T)?
**A.** Its GI50 is 89.1 µM (inactive).

**Q.** What about the GI50 (IGROV-1) of the same molecule?
**A.** Its GI50 is 30.5 µM (inactive).

**Q.** What about the GI50 (KM12) of the same molecule?
**A.** The GI50 was > 100 µM (inactive).

**Q.** And the GI50 (LOX IMVI)?
**A.** The GI50 was 20.9 µM (inactive).

**Q.** What about the GI50 (M14) of the same molecule?
**A.** The GI50 was 31.5 µM (inactive).

**Q.** And the GI50 (MCF7)?
**A.** Its GI50 is 46.1 µM (inactive).

**Q.** What about the GI50 (MDA-MB-231) of the same molecule?
**A.** Its GI50 is 87.5 µM (inactive).

**Q.** And the GI50 (MDA-MB-435)?
**A.** Its GI50 is 60.5 µM (inactive).

**Q.** And the GI50 (MDA-N)?
**A.** Its GI50 is 63.7 µM (inactive).

**Q.** What about the GI50 (MOLT-4) of the same molecule?
**A.** Its GI50 is 6.15 µM (inactive).

**Q.** And the GI50 (NCI-H226)?
**A.** Its GI50 is > 100 µM (inactive).

**Q.** What about the GI50 (NCI-H23) of the same molecule?
**A.** The GI50 was 70.1 µM (inactive).

**Q.** What about the GI50 (NCI-H460) of the same molecule?
**A.** Its GI50 is > 100 µM (inactive).

**Q.** And the GI50 (NCI-H522)?
**A.** Its GI50 is 3.54 µM (inactive).

**Q.** What about the GI50 (NCI/ADR-RES) of the same molecule?
**A.** The GI50 was > 100 µM (inactive).

**Q.** And the GI50 (OVCAR-3)?
**A.** Its GI50 is 89.3 µM (inactive).

**Q.** And the GI50 (OVCAR-4)?
**A.** The GI50 was 39.7 µM (inactive).

**Q.** What about the GI50 (OVCAR-5) of the same molecule?
**A.** Its GI50 is 25.4 µM (inactive).

**Q.** What about the GI50 (OVCAR-8) of the same molecule?
**A.** The GI50 was 32.5 µM (inactive).

**Q.** And the GI50 (PC-3)?
**A.** The GI50 was > 100 µM (inactive).

**Q.** And the GI50 (RPMI-8226)?
**A.** The GI50 was 16.5 µM (inactive).

**Q.** What about the GI50 (RXF 393) of the same molecule?
**A.** Its GI50 is 19.1 µM (inactive).

**Q.** And the GI50 (SF-268)?
**A.** The GI50 was 28.9 µM (inactive).

**Q.** What about the GI50 (SF-295) of the same molecule?
**A.** The GI50 was > 100 µM (inactive).

**Q.** What about the GI50 (SF-539) of the same molecule?
**A.** Its GI50 is 40.6 µM (inactive).

**Q.** And the GI50 (SK-MEL-28)?
**A.** The GI50 was 35.4 µM (inactive).

**Q.** What about the GI50 (SK-MEL-2) of the same molecule?
**A.** Its GI50 is > 100 µM (inactive).

**Q.** What about the GI50 (SK-MEL-5) of the same molecule?
**A.** Its GI50 is > 99.5 µM (inactive).

**Q.** And the GI50 (SK-OV-3)?
**A.** The GI50 was > 100 µM (inactive).

**Q.** And the GI50 (SN12C)?
**A.** The GI50 was 27.5 µM (inactive).

**Q.** And the GI50 (SNB-19)?
**A.** Its GI50 is > 100 µM (inactive).

**Q.** What about the GI50 (SNB-75) of the same molecule?
**A.** Its GI50 is > 100 µM (inactive).

**Q.** What about the GI50 (SR) of the same molecule?
**A.** The GI50 was 17.9 µM (inactive).

**Q.** What about the GI50 (SW-620) of the same molecule?
**A.** The GI50 was 31.7 µM (inactive).

**Q.** What about the GI50 (T47D) of the same molecule?
**A.** The GI50 was 23.2 µM (inactive).

**Q.** And the GI50 (TK-10)?
**A.** The GI50 was > 100 µM (inactive).

**Q.** What about the GI50 (U-251) of the same molecule?
**A.** Its GI50 is > 100 µM (inactive).

**Q.** And the GI50 (UACC-257)?
**A.** The GI50 was > 100 µM (inactive).

**Q.** What about the GI50 (UACC-62) of the same molecule?
**A.** The GI50 was > 100 µM (inactive).

**Q.** And the GI50 (UO-31)?
**A.** Its GI50 is 18.4 µM (inactive).

**Q.** What does the source list for `OCCCc1ccc2c(c1)[C@H](CO)[C@@H](c1ccc(O)cc1)O2`?
**A.** GI50 (786-0): > 100 µM (inactive); GI50 (A498): > 100 µM (inactive); GI50 (A549): > 100 µM (inactive); GI50 (ACHN): > 100 µM (inactive); GI50 (BT-549): 20.4 µM (inactive); GI50 (CCRF-CEM): 76 µM (inactive); GI50 (COLO 205): > 100 µM (inactive); GI50 (DU-145): > 100 µM (inactive); GI50 (EKVX): > 100 µM (inactive); GI50 (HCC 2998): 16.6 µM (inactive); GI50 (HCT-116): > 100 µM (inactive); GI50 (HCT-15): > 100 µM; GI50 (HL-60): 78.2 µM (inactive); GI50 (HOP-62): > 100 µM (inactive); GI50 (HOP-92): > 100 µM (inactive); GI50 (HT-29): > 100 µM (inactive); GI50 (Hs-578T): 19.5 µM (inactive); GI50 (IGROV-1): > 100 µM (inactive); GI50 (K562): > 100 µM (inactive); GI50 (KM12): 82.4 µM (inactive); GI50 (LOX IMVI): > 100 µM (inactive); GI50 (M14): > 100 µM (inactive); GI50 (MCF7): > 100 µM (inactive); GI50 (MDA-MB-231): > 100 µM (inactive); GI50 (MDA-MB-435): 69.3 µM (inactive); GI50 (MDA-N): 87.7 µM (inactive); GI50 (MOLT-4): 19.5 µM (inactive); GI50 (Malme-3M): 13.8 µM (inactive); GI50 (NCI-H226): > 100 µM (inactive); GI50 (NCI-H23): 35.8 µM (inactive); GI50 (NCI-H460): > 100 µM (inactive); GI50 (NCI-H522): > 100 µM (inactive); GI50 (NCI/ADR-RES): > 100 µM (inactive); GI50 (OVCAR-3): > 100 µM (inactive); GI50 (OVCAR-4): 16.8 µM (inactive); GI50 (OVCAR-5): > 100 µM (inactive); GI50 (OVCAR-8): > 100 µM (inactive); GI50 (PC-3): 50.4 µM (inactive); GI50 (RPMI-8226): 26 µM (inactive); GI50 (RXF 393): > 100 µM (inactive); GI50 (SF-268): > 100 µM (inactive); GI50 (SF-295): > 100 µM (inactive); GI50 (SF-539): > 100 µM (inactive); GI50 (SK-MEL-28): 36.4 µM (inactive); GI50 (SK-MEL-2): > 100 µM (inactive); GI50 (SK-MEL-5): 18.6 µM (inactive); GI50 (SK-OV-3): > 100 µM (inactive); GI50 (SN12C): > 100 µM (inactive); GI50 (SNB-19): > 100 µM (inactive); GI50 (SNB-75): > 100 µM (inactive); GI50 (SR): 33.6 µM (inactive); GI50 (SW-620): > 100 µM (inactive); GI50 (T47D): 39.2 µM (inactive); GI50 (TK-10): > 100 µM (inactive); GI50 (U-251): > 100 µM (inactive); GI50 (UACC-257): 46 µM (inactive); GI50 (UACC-62): 51.9 µM (inactive); GI50 (UO-31): 68.2 µM (inactive)
